# Assays:
# [1] = system: prostate cancer epithelial cells; test: Stromal-epithelial co-culture: PSC27 extracellular fluid on proliferation, migration, invasion of prostate cancer epithelial cells; type: cell-based, human; settings: extracellular fluid of bleomycin-damaged PSC27 treated with TAK1 inhibitor
# Description: c. Experimental Treatment In Vitro • 100 nM docetaxel (DTX), 100 nM paclitaxel (PTX), 200 nM vincristine (VCR), 50 μg/ml bleomycin (BLEO), 1 μM mitoxantrone (MIT), or 10 Gy ^137CS ionizating radiation (γ-radiation at 743 rad/min, RAD) was added to the culture medium when PSC27 cells grown to 80% (PSC27-Pre) to produce cell damage. After drug treatment for 6 hours, the cells were simply washed by PBS for 3 times and kept in the culture medium for 7 to 10 days, followed by subsequent experiments. 2. Plasmid Preparation and Lentiviral Transfection • Full-length human IKKα and Flag were cloned as a fusion protein between the restriction sites BamHI and XbaI in the expression vector pCR3.1. Full-length human mTOR and GST were cloned as a fusion protein between a pair of NotI restriction sites in the expression vector pcDNA3. Packaging cell line 293FT was used for cell transfection and lentivirus production. The sequences of small hairpin RNAs (shRNAs) for knocking out TRAF6 were as follows: • 5′-[…]-3′(SEQ ID NO: 1); and • 5′-[…]-3′ (SEQ ID NO: 2). • The sequences of small hairpin RNAs (shRNAs) for knocking out TAK1 were as follows: • 5′-[…]-3′(SEQ ID NO: 3); and • 5′-[…]-3′(SEQ ID NO: 4). • The sequences of small hairpin RNAs (shRNAs) for knocking out IL-1α were as follows: • 5′-[…]-3′(SEQ ID NO: 5); and • 5′-[…]-3′ (SEQ ID NO: 6). 3. Immunofluorescence and Histochemical Analysis • Mouse monoclonal antibody anti-phospho-Histone H2A.X (Ser139) (clone JBW301, Millipore) or mouse monoclonal antibody anti-Phosphor-53BP1 (Cat #sc-135748, Santa Cruz), and secondary antibody Alexa Fluor® 488 (or 594)-conjugated F(ab′)2 were added sequentially to slides on which cells were fixed. […] FV1000 laser scanning confocal microscopy (Olympus) was used to obtain cellular confocal fluorescence images to determine the extent of DNA damage. • Antibody anti-TAK1 used for histological IHC staining in clinical prostate, non-small cell lung cancer patients and breast cancer patients, was purchased from Proteintech, idib. […] Quantitative PCR for Measuring Gene Expression […]
# NF-κB complex = test: NF-κB activation in bleomycin-treated stromal cells (nuclear translocation, luciferase reporter); type: cell-based, human
# Description: FIG. 22. The stromal cells pre-transduced with the NF-κB transcriptional luciferase reporter vector were treated with bleomycin and/or RAD001. The cells were collected on Day 7 and detected for the fluorescence signal intensity of the reporter vector.
# FIG. 32. Detection of NF-kB transcriptional activity based on the reporter vector. Stromal cells were treated with bleomycin along with the PI3K small molecule inhibitor LY294002 (1 μM), Akt inhibitor MK-2206 (100 nM), mTOR inhibitor RAD001 (50 nM), p38 inhibitor SB203580 (10 μM) and TAK1 inhibitor 5Z-7 (500 nM), respectively, and cell lysates were used for determining luciferase activity.
# The […] vector pBABE-puro-IκBα-mut (Super repressor) containing two phosphorylated mutant sites of IKK at S32A and S34A on the IκBα protein encoding sequence were used for transfection of lentivirus-packing cell line phoenix. Lentiviruses were subsequently used to infect PSC27 stromal cell line, whereas 1 μg/ml puromycin was used to screen positive clones. As another method, 5 μm of the small molecule inhibitor Bay11-7082 (purchased from Selleck) was used for NF-κB activity control. Stromal cells were subsequently exposed to several different forms of cytotoxicity, with the resulting phenotype recorded in time, and the relevant gene expression analyzed. The resulted conditioned culture medium produced from cells processed in this way was collected for various detection of epithelial cells.
# Even so, is TAK1 activated indirectly by upstream DDR signaling associated with activation of a core transcription factor, NF-κB complex involved in the broad-spectrum expression of the SASP? The NF-κB complex was previously reported to be mediated by mono-ubiquitination of IκB kinase subunit γ (IKKγ) in cytoplasm. After isolating nucleus from cytoplasmic proteins using a kit, the inventor finds that TAK1 phosphorylation is associated with nuclear translocation of p50 and p65, the two main subunits of NF-κB complex (FIG. 4).
smiles,measurement,setting,value
"COc1cc(O)c2c(c1)/C=C/C[C@H](O)[C@H](O)C(=O)/C=C\C[C@H](C)OC2=O [5Z-7, 5z-7-oxozeaenol]",in vitro migration of prostate cancer epithelial cells promoted by stromal cell extracellular fluid,[1],significantly reduced
same,invasion of prostate cancer epithelial cells promoted by stromal cell extracellular fluid,[1],significantly weakened
same,proliferation of prostate cancer epithelial cells promoted by stromal cell extracellular fluid,[1],decreased significantly
same,NF-κB transcriptional activity (reporter vector),"NF-κB complex; bleomycin plus inhibitor, luciferase reporter",significantly reduced
same,phosphorylation of TAK1 and nuclear translocation of p50/p65,"NF-κB complex; bleomycin-treated stromal cells, cytosolic and nuclear proteins",significantly inhibited
same,inhibitory effect on NF-κB activation and IL-8 compared with the other inhibitors,"NF-κB complex; vs LY294002, MK-2206, SB203580",stronger inhibitory effect

# Reference: patent publication US11344601B2, “Tumor microenvironment-related target TAK1 and application thereof in inhibition of tumor” (Shanghai Institutes for Biological Sciences, Chinese …, priority 2017, dated 2022)
